Reference: publication PMC10970924 (Life, 2024)
Marks after values point to notes of the source that are not given here.

What was measured:
[1] = Neutralization of the ABTS radical; conditions: for EC50: 37 °C, 15 min, 738 nm, read-out: EC50 of half-maximal ABTS radical inhibition; for Trolox Equivalent Antioxidant Capacity (TEAC): ABTS radical neutralization, relative to Trolox
Experimental: Initially, an ABTS solution was prepared in water at a concentration of 7 mM. Subsequently, the radical cation ABTS^•+ was generated by mixing the original ABTS solution with 2.45 mM ammonium persulfate at a 1:1 ratio. This mixture was then allowed to stand in the dark at room temperature for 12–16 h before use. The diluted ABTS^•+ solution was prepared in a methanol/water mixture (1:1) reaching an optical density of 0.7 units at 738 nm (~0.7 mM). Next, various concentrations of compounds (ranging from 1000, 500, 250, 125, 62.5, 31.2, 15.6, to 7.8 μM) in a volume of 130 µL in a methanol/water mixture (1:1) were mixed with the ABTS radical cation solution (~0.7 mM) in a volume of 130 µL. The mixture was then incubated at 37 °C in a water bath for 15 min. The optical density was measured at 738 nm using the Infinite M200 PRO (TECAN, Zürich, Switzerland) plate reader. The percentage inhibition of ABTS absorption relative to the control was calculated. A percent inhibition vs. antioxidant concentration graph was plotted and the concentration of the antioxidant that suppresses the optical density of the ABTS radical by 50% (EC50) was determined. The Trolox Equivalent Antioxidant Capacity (TEAC) was also calculated.

[2] = system: porcine neuronal tubulin; experiment: Tubulin polymerization assay (Cytoskeleton kit); assay type: biochemical; conditions: effector 10 µM; for Maximum Initial Rate of Polymerization V Max: tubulin 3 mg/mL, 37 °C
Experimental: To assess the effect of the test compounds on tubulin polymerization, a test kit from Cytoskeleton was used. The plate was pre-warmed to 37 °C for 20 min before starting the assay. Then, 10 µL of the compound of interest, at a 10-fold concentration in an assay buffer, was pipetted into the plate. For comparison, paclitaxel, a polymerization enhancer, and vinblastine, a tubulin polymerization inhibitor, were used. Both effectors were used at a concentration of 10 µM. The assay buffer served as a control. The plate was then incubated at 37 °C for 2 min, after which 100 µL of the diluted tubulin solution (containing 3 mg/mL of tubulin in 80 mM PIPES pH 6.9, 2 mM MgCl2, 0.5 mM EGTA, 1 mM GTP, and 7% glycerol) was added. The plate was then immediately placed in the plate reader. Absorbance was measured at 340 nm every minute for 61 readings on a Varioskan LUX (Thermo Scientific, Waltham, MA, USA) plate reader.

Structure (SMILES)	EC50 [1] [µM]	Trolox Equivalent Antioxidant Capacity (TEAC) [1]	Maximum Initial Rate of Polymerization V Max [2]	also measured
Cc1c(C)c2c(c(C)c1O)CCC(C)(C(=O)O)O2 (stereo not drawn) [Trolox]	15.7 ± 3.4	1.0		
O=C1O[C@H]([C@@H](O)CO)C(O)=C1O [Ascorbic acid]	15.2 ± 4.8	1.03		
CC[C@]1(O)C[C@@H]2CN(CCc3c([nH]c4ccccc34)[C@@](C(=O)OC)(c3cc4c(cc3OC)N(C)[C@H]3[C@@](O)(C(=O)OC)[C@H](OC(C)=O)[C@]5(CC)C=CCN6CC[C@]43[C@@H]65)C2)C1 [Vinblastine, vinblastine]			2.4 * mOD/Min	Inhibition of tubulin polymerization, fold [2]: 3; Maximum Initial Rate of Polymerization V Max ([2]; listed as vinblastine): 2.4 mOD/Min
CC(=O)O[C@H]1C(=O)[C@@]2(C)[C@H]([C@H](OC(=O)c3ccccc3)[C@]3(O)C[C@H](OC(=O)[C@H](O)[C@@H](NC(=O)c4ccccc4)c4ccccc4)C(C)=C1C3(C)C)[C@]1(OC(C)=O)CO[C@@H]1C[C@@H]2O [Paclitaxel, paclitaxel]			8 * mOD/Min	Vmax, times higher than in the control reaction [2]: 1.2; Maximum Initial Rate of Polymerization V Max ([2]; listed as paclitaxel): 8.0 mOD/Min
O=c1c(O)c(-c2ccc(O)c(O)c2)oc2cc(O)cc(O)c12 [Quercetin]	3.2 ± 1.6	4.9		
